# Measurements taken from ChEMBL document CHEMBL3351924, “Detailed analysis and follow-up studies of a high-throughput screening for indoleamine 2,3-dioxygenase 1 (IDO1) inhibitors” (Eur J Med Chem, 2014).
# pIC50: −log10 of the molar value.
# Tests used:
# [1] = biological target: T1, Indoleamine 2,3-dioxygenase 1 (Homo sapiens, UniProt P14902); assay: Inhibition of IDO1 (unknown origin) using L-tryptophan substrate incubated for 60 mins in presence of 0.01% Triton-X by HPLC; details: for pIC50: read-out: IC50
# [2] = Solubility of the compound in pH 6.5 phosphate buffer containing 5% DMSO
# [3] = biological target: T1, Indoleamine 2,3-dioxygenase 1; assay: Inhibition of IDO1 (unknown origin) using L-tryptophan substrate incubated for 60 mins in presence of 5 mM GSH by HPLC
# [4] = biological target: Indoleamine 2,3-dioxygenase 1 (Mus musculus, UniProt P28776); assay: Inhibition of mouse IDO1 expressed in mouse P815B cells using L-tryptophan substrate incubated for 18 hrs by HPLC based cellular assay; format: cell-based; details: p815b
# [5] = biological target: Tryptophan 2,3-dioxygenase (Mus musculus, UniProt P48776); assay: Inhibition of mouse TDO expressed in mouse P815B cells using L-tryptophan substrate incubated for 24 hrs by HPLC based cellular assay; format: cell-based; details: p815b
# [6] = Cytotoxicity against mouse P815B cells after 24 hrs by MTS/PMS assay
# [7] = biological target: T1, Indoleamine 2,3-dioxygenase 1; assay: Inhibition of IDO1 (unknown origin) using L-tryptophan substrate incubated for 60 mins by HPLC
# [8] = phosphate buffer containing 5% DMSO
# T1 sequence (P14902 whole entry): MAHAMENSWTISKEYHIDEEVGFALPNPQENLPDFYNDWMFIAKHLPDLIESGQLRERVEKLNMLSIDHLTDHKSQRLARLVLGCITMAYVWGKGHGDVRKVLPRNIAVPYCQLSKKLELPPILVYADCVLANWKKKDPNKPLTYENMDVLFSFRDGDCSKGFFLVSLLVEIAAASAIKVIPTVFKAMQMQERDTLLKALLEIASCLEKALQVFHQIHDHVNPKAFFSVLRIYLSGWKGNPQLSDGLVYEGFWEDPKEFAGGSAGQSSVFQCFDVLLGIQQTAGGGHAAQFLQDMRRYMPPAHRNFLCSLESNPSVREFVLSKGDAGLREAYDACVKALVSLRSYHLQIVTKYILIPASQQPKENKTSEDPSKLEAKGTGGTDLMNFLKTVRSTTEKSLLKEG
# Chain of Tryptophan 2,3-dioxygenase (P48776 whole entry): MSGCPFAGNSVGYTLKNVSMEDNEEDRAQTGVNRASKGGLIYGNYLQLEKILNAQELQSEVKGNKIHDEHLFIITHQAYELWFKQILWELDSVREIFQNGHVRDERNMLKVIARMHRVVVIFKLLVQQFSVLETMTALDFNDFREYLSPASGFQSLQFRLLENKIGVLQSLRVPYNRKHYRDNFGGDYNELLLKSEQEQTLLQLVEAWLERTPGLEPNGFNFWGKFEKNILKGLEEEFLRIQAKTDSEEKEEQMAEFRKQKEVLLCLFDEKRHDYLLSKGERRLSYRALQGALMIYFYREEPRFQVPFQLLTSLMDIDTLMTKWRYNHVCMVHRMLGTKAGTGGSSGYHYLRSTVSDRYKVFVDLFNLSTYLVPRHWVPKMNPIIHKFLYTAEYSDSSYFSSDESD
# Chain of Indoleamine 2,3-dioxygenase 1 (Mus musculus, UniProt P28776) (P28776 whole entry): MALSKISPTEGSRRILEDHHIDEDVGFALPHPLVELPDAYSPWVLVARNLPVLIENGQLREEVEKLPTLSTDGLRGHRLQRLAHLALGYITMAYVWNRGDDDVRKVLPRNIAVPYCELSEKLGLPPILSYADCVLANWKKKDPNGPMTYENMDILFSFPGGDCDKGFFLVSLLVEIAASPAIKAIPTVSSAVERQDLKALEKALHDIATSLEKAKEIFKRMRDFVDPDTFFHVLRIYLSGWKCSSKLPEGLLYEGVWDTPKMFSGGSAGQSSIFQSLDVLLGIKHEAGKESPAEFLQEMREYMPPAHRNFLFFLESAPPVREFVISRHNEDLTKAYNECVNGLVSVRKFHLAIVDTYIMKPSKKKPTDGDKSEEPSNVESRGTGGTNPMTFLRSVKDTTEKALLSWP
smiles,measurement,setting,value
Clc1ccc(COCCn2ccnc2)c(Cl)c1,IC50,[1],Not Active
same,solubility,[2]; [8],> 1000 µM
Clc1ccc(CCn2ccnc2)c(Cl)c1,pIC50,[1],3.09
same,solubility,[2]; [8],> 1000 µM
COC(Cn1ccnc1)c1ccc(Cl)cc1Cl (configuration not stated),pIC50,[1],3.85
same,solubility,[2]; [8],> 1000 µM
Clc1ccc(C(Cn2ccnc2)OCc2cccnc2)c(Cl)c1 (configuration not stated),pIC50,[1],4.08
same,solubility,[2]; [8],> 1000 µM
OC(Cn1ccnc1)c1ccccc1Cl (configuration not stated),pIC50,[1],3.70
same,solubility,[2]; [8],> 1000 µM
OC(Cn1ccnc1)c1ccc(Cl)c(Cl)c1 (configuration not stated),pIC50,[1],3.08
same,solubility,[2]; [8],> 1000 µM
OC(Cn1ccnc1)c1cccc(Cl)c1 (configuration not stated),IC50,[1],Not Active
same,solubility,[2]; [8],> 1000 µM
OC(Cn1ccnc1)c1c(Cl)cccc1Cl (configuration not stated),IC50,[1],Not Active
same,solubility,[2]; [8],> 1000 µM
Oc1ccccc1C(O)Cn1ccnc1 (configuration not stated),IC50,[1],Not Active
same,solubility,[2]; [8],> 1000 µM
OC(Cc1c[nH]nn1)c1ccc(Cl)cc1Cl (configuration not stated),IC50,[1],Not Active
same,solubility,[2]; [8],> 1000 µM
Clc1ccc(Cn2ccnc2)c(Cl)c1,pIC50,[1],3.51
same,solubility,[2]; [8],> 1000 µM
Clc1ccc(-n2ccnc2)c(Cl)c1,IC50,[1],Not Active
same,solubility,[2]; [8],> 1000 µM
O=C(Cn1ccnc1)c1ccc(Cl)cc1Cl,IC50,[1],Not Active
same,solubility,[2]; [8],> 1000 µM
c1ccc(CCn2ccnc2)cc1,IC50,[1],Not Active
same,solubility,[2]; [8],> 1000 µM
O=c1ccsn1-c1cccc(Cl)c1F,pIC50,[1],5.32
same,pIC50,[3],3.70
same,IC50,[4],Not Active
same,IC50,[5],Not Active
same,CC50 at 24 h,[6]; P815B cells,10 µM
same,pIC50,[7]; read-out: IC50,4.96
same,solubility,[2]; [8],1000 µM
CCN(CC)C(=S)SSC(=S)N(CC)CC,IC50,[7],Not Active
same,solubility,[2]; [8],100 µM
c1ccc(Cn2ccnc2)cc1 [BENZYLIMIDAZOLE],IC50,[1],Not Active
same,solubility,[2]; [8],> 1000 µM
c1ccc(-c2ccc(C(c3ccccc3)n3ccnc3)cc2)cc1 (configuration not stated) [BIFONAZOLE],IC50,[4],Not Active
same,IC50,[5],Not Active
same,CC50 at 24 h,[6]; P815B cells,10 µM
same,pIC50,[7]; read-out: IC50,4.64
same,solubility,[2]; [8],25 µM
Clc1ccc(CCC(Cn2ccnc2)Sc2c(Cl)cccc2Cl)cc1 (configuration not stated) [BUTOCONAZOLE],IC50,[7],Not Active
same,solubility,[2]; [8],10 µM
Cc1cc(C2CCCCC2)n(O)c(=O)c1 [CICLOPIROX],IC50,[7],Not Active
same,solubility,[2]; buffer,1000 µM
Clc1ccc(COC(Cn2ccnc2)c2ccc(Cl)cc2Cl)cc1 (configuration not stated) [ECONAZOLE],IC50,[4],Not Active
same,IC50,[5],Not Active
same,CC50 at 24 h,[6]; P815B cells,10 µM
same,pIC50,[7],5.09
same,solubility,[2]; [8],10 µM
C=CCOC(Cn1ccnc1)c1ccc(Cl)cc1Cl (configuration not stated) [ENILCONAZOLE],IC50,[4],Not Active
same,IC50,[5],Not Active
same,CC50 at 24 h,[6]; P815B cells,> 25 µM
same,pIC50,[7]; read-out: IC50,4.64
same,solubility,[2]; [8],10 µM
Clc1ccc(C(Cn2ccnc2)OCc2c(Cl)cccc2Cl)c(Cl)c1 (configuration not stated) [ISOCONAZOLE],IC50,[4],Not Active
same,IC50,[5],Not Active
same,CC50 at 24 h,[6]; P815B cells,10 µM
same,pIC50,[7]; read-out: IC50,4.64
same,solubility,[2]; [8],50 µM
CC(=O)N1CCN(c2ccc(OCC3COC(Cn4ccnc4)(c4ccc(Cl)cc4Cl)O3)cc2)CC1 (configuration not stated) [KETOCONAZOLE],pIC50,[1],4.60
same,IC50,[4],Not Active
same,IC50,[5],Not Active
same,CC50 at 24 h,[6]; P815B cells,25 µM
same,pIC50,[7]; read-out: IC50,4.49
same,solubility,[2]; [8],100 µM
CCOC(=O)C1=C(C)NC(C)=C(C(=O)OCC)C1c1ccccc1/C=C/C(=O)OC(C)(C)C [LACIDIPINE],solubility,[2]; [8],1 µM
COc1cccc(N(C)C(=S)Oc2ccc3c(c2)CCCC3)n1 [LIRANAFTATE],solubility,[2]; [8],12.5 µM
Sc1ncnc2nc[nH]c12 [MERCAPTOPURINE ANHYDROUS],IC50,[7],Not Active
same,solubility,[2]; [8],1000 µM
Clc1ccc(COC(Cn2ccnc2)c2ccc(Cl)cc2Cl)c(Cl)c1 (configuration not stated) [MICONAZOLE],pIC50,[1],5.42
same,IC50,[4],Not Active
same,IC50,[5],Not Active
same,CC50 at 24 h,[6]; p815b,10 µM
same,pIC50,[7]; read-out: IC50,5.17
same,solubility,[2]; [8],10 µM
COC(=O)C1=C(C)NC(C)=C(C(=O)OC)C1c1ccccc1[N+](=O)[O-] [NIFEDIPINE],IC50,[7],Not Active
COC(=O)C1=C(C)NC(C)=C(C(=O)OCC(C)C)C1c1ccccc1[N+](=O)[O-] (configuration not stated) [NISOLDIPINE],IC50,[7],Not Active
same,solubility,[2]; [8],50 µM
Clc1ccc(CO/N=C(\Cn2ccnc2)c2ccc(Cl)cc2Cl)c(Cl)c1 [OXICONAZOLE],IC50,[4],Not Active
same,IC50,[5],Not Active
same,CC50 at 24 h,[6]; p815b,10 µM
same,pIC50,[7]; read-out: IC50,4.55
same,solubility,[2]; [8],20 µM
NNCCc1ccccc1 [PHENELZINE],IC50,[4],Not Active
same,IC50,[5],Not Active
same,CC50 at 24 h,[6]; p815b,> 25 µM
same,pIC50,[7]; read-out: IC50,4.85
same,solubility,[2]; buffer,1000 µM
CC(C)(N)Cc1ccccc1 [PHENTERMINE],solubility,[2]; [8],1000 µM
COCCCOc1ccnc(C[S+]([O-])c2nc3ccccc3[nH]2)c1C (configuration not stated) [RABEPRAZOLE],IC50,[7],Not Active
same,solubility,[2]; [8],1000 µM
O=C(c1ccc(OCCN2CCCCC2)cc1)c1c(-c2ccc(O)cc2)sc2cc(O)ccc12 [RALOXIFENE],solubility,[2]; [8],50 µM
Clc1ccc(C(Cn2ccnc2)OCc2csc3c(Cl)cccc23)c(Cl)c1 (configuration not stated) [SERTACONAZOLE],IC50,[4],Not Active
same,IC50,[5],Not Active
same,CC50 at 24 h,[6]; P815B cells,10 µM
same,pIC50,[7]; read-out: IC50,5.08
same,solubility,[2]; [8],10 µM
Clc1ccc(CSC(Cn2ccnc2)c2ccc(Cl)cc2Cl)cc1 (configuration not stated) [SULCONAZOLE],IC50,[4],Not Active
same,IC50,[5],Not Active
same,CC50 at 24 h,[6]; p815b,10 µM
same,solubility,[2]; [8],10 µM
Clc1ccc(C(Cn2ccnc2)OCc2ccsc2Cl)c(Cl)c1 (configuration not stated) [TIOCONAZOLE],IC50,[7],Not Active
same,solubility,[2]; buffer,10 µM
